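Test compounds were applied to cells in 96-well plates for 48 hours at 5 doses. GI50 marks 50% less growth.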 Active and inactive are the calls of the source. Rule as the data show it: active = GI50 up to about 1.1 µM and inactive = higher.
Tests used:
Assay in all cases: NCI-60 cell line screen, 48 h
LOX IMVI = tested on: LOX IMVI
NCI-H23 = tested on: NCI-H23
HOP-62 = tested on: HOP-62
A549 = tested on: A549
SN12C = tested on: SN12C
KM12 = tested on: KM12
NCI-H460 = tested on: NCI-H460
COLO 205 = tested on: COLO 205
EKVX = tested on: EKVX
OVCAR-4 = tested on: OVCAR-4
ACHN = tested on: ACHN
UACC-257 = tested on: UACC-257
K562 = tested on: K562
CAKI-1 = tested on: CAKI-1
Malme-3M = tested on: Malme-3M
HOP-92 = tested on: HOP-92
SW-620 = tested on: SW-620
NCI/ADR-RES = tested on: NCI/ADR-RES
HL-60 = tested on: HL-60

SMILES | GI50 (LOX IMVI) | GI50 (NCI-H23) | GI50 (HOP-62) | GI50 (A549) | GI50 (SN12C) | GI50 (KM12) | GI50 (NCI-H460) | GI50 (COLO 205) | GI50 (EKVX) | GI50 (OVCAR-4) | GI50 (ACHN) | GI50 (UACC-257) | GI50 (K562) | GI50 (CAKI-1) | GI50 (Malme-3M) | GI50 (HOP-92) | GI50 (SW-620) | GI50 (NCI/ADR-RES) | GI50 (HL-60)
N#CCCC1(CCC#N)CCCCCCC(CCC#N)(CCC#N)C(=O)C1=O | > 100 µM (inactive) | > 100 µM (inactive) | > 100 µM (inactive) | > 100 µM (inactive) | 58.2 µM (inactive) | > 100 µM (inactive) | > 100 µM (inactive) | 36.8 µM (inactive) | > 100 µM (inactive) | > 100 µM (inactive) | > 100 µM (inactive) | > 100 µM (inactive) | > 100 µM (inactive) | > 100 µM (inactive) | > 100 µM (inactive) | > 100 µM (inactive) | > 100 µM (inactive) | > 100 µM (inactive) | –
O=C(c1cscc1CCc1ccccc1)c1cscc1CCc1ccccc1 | > 100 µM (inactive) | > 100 µM (inactive) | > 100 µM (inactive) | > 100 µM (inactive) | > 100 µM (inactive) | > 100 µM (inactive) | > 100 µM (inactive) | > 100 µM (inactive) | > 100 µM (inactive) | > 100 µM (inactive) | > 100 µM (inactive) | > 100 µM (inactive) | > 100 µM (inactive) | > 100 µM (inactive) | > 100 µM (inactive) | – | > 100 µM (inactive) | > 100 µM (inactive) | –
CN(C)C(=S)/N=c1\ss/c(=N\C(=S)N(C)C)n1-c1ccc(Cl)cc1 | > 100 µM (inactive) | > 100 µM (inactive) | > 100 µM (inactive) | > 100 µM (inactive) | > 100 µM (inactive) | > 100 µM (inactive) | > 100 µM (inactive) | > 100 µM (inactive) | > 100 µM (inactive) | > 10 µM (inactive) | > 100 µM (inactive) | > 100 µM (inactive) | > 100 µM (inactive) | > 100 µM (inactive) | – | > 100 µM (inactive) | > 100 µM (inactive) | – | > 100 µM (inactive)
CCOC(=O)COc1cc(-c2ccccc2)nc2cc(F)ccc12 | > 100 µM (inactive) | > 100 µM (inactive) | > 100 µM (inactive) | > 100 µM (inactive) | > 100 µM (inactive) | > 100 µM (inactive) | – | > 100 µM (inactive) | > 100 µM (inactive) | 42 µM (inactive) | – | > 100 µM (inactive) | > 100 µM (inactive) | > 100 µM (inactive) | > 100 µM (inactive) | 52 µM (inactive) | > 100 µM (inactive) | > 100 µM (inactive) | –
C/C=C(/C)c1cnc(CC(C)C)c(=O)[nH]1 | > 100 µM (inactive) | > 100 µM (inactive) | > 100 µM (inactive) | > 100 µM (inactive) | > 100 µM (inactive) | > 100 µM (inactive) | > 100 µM (inactive) | > 100 µM (inactive) | > 100 µM (inactive) | > 100 µM (inactive) | > 100 µM (inactive) | > 100 µM (inactive) | > 100 µM (inactive) | > 100 µM (inactive) | – | > 100 µM (inactive) | > 100 µM (inactive) | – | –
COC(=O)[C@]1(C)CCC[C@@]2(C)C1CC[C@]13C=C(C(C)C)[C@H](CC21)CC3(Cl)C#N (stereo partly drawn) | – | 59.8 µM (inactive) | 36.3 µM (inactive) | 57.5 µM (inactive) | 51.1 µM (inactive) | 38.1 µM (inactive) | 41.7 µM (inactive) | 41.6 µM (inactive) | 31.5 µM (inactive) | 54.6 µM (inactive) | 43.9 µM (inactive) | 27.7 µM (inactive) | 19.5 µM (inactive) | 66.1 µM (inactive) | 36.6 µM (inactive) | > 100 µM (inactive) | 37.6 µM (inactive) | 57.7 µM (inactive) | –
COC(=O)N/N=C(\c1nc2ccc(Cl)cc2nc1O)C(O)c1ccc([N+](=O)[O-])cc1 (stereo not drawn) | > 100 µM (inactive) | > 100 µM (inactive) | > 100 µM (inactive) | > 100 µM (inactive) | > 100 µM (inactive) | > 100 µM (inactive) | > 100 µM (inactive) | > 100 µM (inactive) | – | > 100 µM (inactive) | – | > 100 µM (inactive) | > 100 µM (inactive) | > 100 µM (inactive) | > 100 µM (inactive) | > 100 µM (inactive) | > 100 µM (inactive) | – | > 100 µM (inactive)
O=c1c2cc(Br)ccc2oc2nc3n(c(=O)c12)CCCS3 | > 100 µM (inactive) | > 100 µM (inactive) | > 100 µM (inactive) | > 100 µM (inactive) | > 100 µM (inactive) | > 100 µM (inactive) | > 100 µM (inactive) | > 100 µM (inactive) | > 100 µM (inactive) | > 100 µM (inactive) | > 100 µM (inactive) | > 100 µM (inactive) | > 100 µM (inactive) | > 100 µM (inactive) | > 100 µM (inactive) | > 100 µM (inactive) | > 100 µM (inactive) | > 100 µM (inactive) | –
CNc1nc(N)c(N=O)c(Nc2ccc(Br)cc2)n1 | > 100 µM (inactive) | > 100 µM (inactive) | > 100 µM (inactive) | > 100 µM (inactive) | > 100 µM (inactive) | > 100 µM (inactive) | > 100 µM (inactive) | > 100 µM (inactive) | 13.7 µM (inactive) | – | 53.2 µM (inactive) | > 100 µM (inactive) | > 100 µM (inactive) | – | > 100 µM (inactive) | – | > 100 µM (inactive) | > 100 µM (inactive) | > 100 µM (inactive)
COc1cccc(C2SC(=N)Nc3c2c(C)nn3C(=O)c2ccccc2O)c1 (stereo not drawn) | > 4.26 µM (inactive) | – | > 7.1 µM (inactive) | 1.75 µM (inactive) | > 3.35 µM (inactive) | > 2.79 µM (inactive) | 3.22 µM (inactive) | > 6.4 µM (inactive) | > 9.14 µM (inactive) | > 2.88 µM (inactive) | 1.77 µM (inactive) | 2.68 µM (inactive) | – | > 10 µM (inactive) | 0.581 µM (active) | > 2.08 µM (inactive) | > 7.14 µM (inactive) | > 3.78 µM (inactive) | –
O=CC[C@H]1CCc2ccccc2C12CCC(=O)CC2 | 62.7 µM (inactive) | – | > 100 µM (inactive) | 55.7 µM (inactive) | 67.8 µM (inactive) | 82.8 µM (inactive) | > 100 µM (inactive) | 94.2 µM (inactive) | – | > 100 µM (inactive) | > 100 µM (inactive) | 60.8 µM (inactive) | 28.2 µM (inactive) | > 100 µM (inactive) | 74.5 µM (inactive) | 68.4 µM (inactive) | 80.2 µM (inactive) | – | 23.7 µM (inactive)
Cc1c(Cl)cccc1/N=N/C(=O)NNc1cccc(Cl)c1C | 21.3 µM (inactive) | 16.7 µM (inactive) | 12.8 µM (inactive) | 16.9 µM (inactive) | 17.3 µM (inactive) | – | 16.6 µM (inactive) | – | – | 12 µM (inactive) | 20.1 µM (inactive) | 23.1 µM (inactive) | 16.8 µM (inactive) | – | 16.1 µM (inactive) | – | 17.1 µM (inactive) | – | 17.8 µM (inactive)
CCNCC(O)c1ccc(N)c([N+](=O)[O-])c1 (stereo not drawn) | > 100 µM (inactive) | > 100 µM (inactive) | > 100 µM (inactive) | > 100 µM (inactive) | > 100 µM (inactive) | – | > 100 µM (inactive) | > 100 µM (inactive) | > 100 µM (inactive) | 21.4 µM (inactive) | > 100 µM (inactive) | > 100 µM (inactive) | > 100 µM (inactive) | > 100 µM (inactive) | – | – | > 100 µM (inactive) | > 100 µM (inactive) | > 100 µM (inactive)
O=C1C2=C(c3ccccc31)C(c1ccccc1Cl)NC(S)=N2 (stereo not drawn) | – | 39.4 µM (inactive) | > 100 µM (inactive) | 85.1 µM (inactive) | 41.3 µM (inactive) | 44.5 µM (inactive) | 72.8 µM (inactive) | 69.3 µM (inactive) | > 100 µM (inactive) | 35.6 µM (inactive) | 41.8 µM (inactive) | 51.3 µM (inactive) | 49.2 µM (inactive) | 38.2 µM (inactive) | 39 µM (inactive) | 16.5 µM (inactive) | 74.5 µM (inactive) | – | 34 µM (inactive)
CCOC(=O)C(=O)Nc1c(CC)cccc1C(C)C | > 100 µM (inactive) | > 100 µM (inactive) | > 100 µM (inactive) | > 100 µM (inactive) | > 100 µM (inactive) | > 100 µM (inactive) | > 100 µM (inactive) | > 100 µM (inactive) | > 100 µM (inactive) | > 100 µM (inactive) | > 100 µM (inactive) | > 100 µM (inactive) | – | > 100 µM (inactive) | > 100 µM (inactive) | > 100 µM (inactive) | > 100 µM (inactive) | – | –
CCOC(=O)CCC(NC(=O)C(N)c1ccc([N+](=O)[O-])cc1)C(=O)NC(CCC(=O)OCC)C(=O)OCC (stereo not drawn) | – | > 100 µM (inactive) | > 100 µM (inactive) | > 100 µM (inactive) | > 100 µM (inactive) | > 100 µM (inactive) | > 100 µM (inactive) | > 100 µM (inactive) | > 100 µM (inactive) | – | > 100 µM (inactive) | > 100 µM (inactive) | > 100 µM (inactive) | – | > 100 µM (inactive) | > 100 µM (inactive) | > 100 µM (inactive) | – | > 100 µM (inactive)
N=C(N)NC(CC(=O)O)c1ccccc1 (stereo not drawn) | > 100 µM (inactive) | > 100 µM (inactive) | > 100 µM (inactive) | > 100 µM (inactive) | > 100 µM (inactive) | > 100 µM (inactive) | > 100 µM (inactive) | > 100 µM (inactive) | > 100 µM (inactive) | > 100 µM (inactive) | > 100 µM (inactive) | > 100 µM (inactive) | > 100 µM (inactive) | > 100 µM (inactive) | > 100 µM (inactive) | > 100 µM (inactive) | > 100 µM (inactive) | > 100 µM (inactive) | –
